Here are results for five compounds from patent US8568736B2, “Polypeptide derivatives of parathyroid hormone (PTH)” (The General Hospital Corporation, priority 1999, dated 2013).

Test [1] addresses T1, WT hPTH-1 receptor (Homo sapiens, UniProt Q03431).
T1 construct: encoding the intact hPTH-1 receptor (HK-WT); expressed in transfected cells; host or cells: COS-7, transient, pcDNA-1 plasmid
T1 sequence (Q03431 27-593): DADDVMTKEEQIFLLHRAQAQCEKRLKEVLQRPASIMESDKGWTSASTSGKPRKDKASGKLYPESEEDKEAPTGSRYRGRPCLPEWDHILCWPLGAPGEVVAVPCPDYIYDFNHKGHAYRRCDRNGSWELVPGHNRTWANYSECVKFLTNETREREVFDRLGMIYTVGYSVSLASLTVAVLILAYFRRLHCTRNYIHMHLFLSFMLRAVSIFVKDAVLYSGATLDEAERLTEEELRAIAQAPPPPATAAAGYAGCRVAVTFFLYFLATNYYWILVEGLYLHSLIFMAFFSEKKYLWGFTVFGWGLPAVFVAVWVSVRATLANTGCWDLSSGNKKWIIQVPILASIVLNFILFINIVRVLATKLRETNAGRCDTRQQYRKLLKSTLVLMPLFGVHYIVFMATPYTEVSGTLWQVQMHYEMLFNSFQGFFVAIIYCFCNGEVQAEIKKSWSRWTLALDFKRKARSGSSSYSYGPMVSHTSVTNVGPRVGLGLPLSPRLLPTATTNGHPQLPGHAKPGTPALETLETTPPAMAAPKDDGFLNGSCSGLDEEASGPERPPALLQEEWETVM
Briefly: cAMP stimulation in COS-7 cells transiently transfected with WT hPTH-1 receptor. It counts as cell-based. The protocol: COS-7 cells were transfected in 24-well plates when the cells were 85 to 95% of confluency using 200 ng of plasmid DNA that was purified by cesium chloride/ethidium bromide gradient centrifugation for each well. Assays were conducted 72 to 96 hours after transfection.
(§1) Stimulation of cells with peptide analogs was performed in 24-well plates. Cells were rinsed with 0.5 mL of binding buffer and treated with 200 μL of cAMP assay buffer (Dulbecco's modified Eagle's medium containing 2 mM 3-isobutyl-1-methylxanthine, 1 mg/mL bovine serum albumin, 35 mM Hepes-NaOH, pH 7.4) and 100 μL of binding buffer containing varying amounts of peptide analog (final volume=300 μL). The medium was removed after incubation for 1 h at room temperature, and the cells were frozen (−80° C.), lysed with 0.5 mL 50 mM HCl, and refrozen (−80° C.). The cAMP content of the diluted lysate was determined by radioimmunoassay. Where possible, cAMP EC50 and Maximum response values were determined using nonlinear regression (see below).
All calculations were performed using Microsoft Excel. Nonlinear regression analysis of cAMP stimulation data was performed using parameters, defined as the Minimum, Maximum, Emax, midpoint (EC50), and slope of the response curve. The predicted response (yp) for a given dose (x) of peptide was calculated using the following equation: yp=Min+[(Max−Min)/(1+(EC50/x)^slope)]. […] The statistical significance between two data sets was determined using a one-tailed Student's t-test, assuming unequal variances for the two sets.

The target of test [2] is T2, rat PTH-1 receptor (endogenous, ROS 17/2.8 cells) (Rattus norvegicus, UniProt P25961).
T2 construct: The rat osteoblastic cell line ROS 17/2.8; endogenous in cells; host or cells: ROS 17/2.8 rat osteoblastic cells
T2 sequence (P25961 27-591): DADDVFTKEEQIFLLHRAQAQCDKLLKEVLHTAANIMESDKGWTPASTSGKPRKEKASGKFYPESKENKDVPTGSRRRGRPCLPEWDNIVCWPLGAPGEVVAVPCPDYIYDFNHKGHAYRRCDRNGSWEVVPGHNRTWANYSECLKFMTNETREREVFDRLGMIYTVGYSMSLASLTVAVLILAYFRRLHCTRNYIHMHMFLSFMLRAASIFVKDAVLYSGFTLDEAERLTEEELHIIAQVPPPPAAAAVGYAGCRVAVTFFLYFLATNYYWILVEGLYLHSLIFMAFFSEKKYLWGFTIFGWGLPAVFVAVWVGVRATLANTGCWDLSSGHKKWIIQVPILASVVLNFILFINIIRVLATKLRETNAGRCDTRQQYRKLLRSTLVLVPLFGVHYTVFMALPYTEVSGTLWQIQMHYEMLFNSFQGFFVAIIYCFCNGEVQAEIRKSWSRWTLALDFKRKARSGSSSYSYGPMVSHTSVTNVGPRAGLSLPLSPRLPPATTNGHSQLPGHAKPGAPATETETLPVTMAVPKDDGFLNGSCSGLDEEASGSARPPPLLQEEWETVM
Briefly: cAMP response in osteoblastic ROS 17/2.8 cells. It counts as cell-based. Particulars: for Emax: ROS 17/2.8 cells. The method, then: The rat osteoblastic cell line ROS 17/2.8 (Majeska, R. J., et al, Endocrinology 107:1494-1503 (1980)) expresses endogenous PTH-1 receptors at levels of 80,000 per cell and the human osteoblastic cell line, SAOS-2, express endogenous PTH-1 receptors at levels of ˜30,000 per cell.
as §1
All calculations were performed using Microsoft Excel. Nonlinear regression analysis of cAMP stimulation data was performed using parameters, defined as the Minimum, Maximum, Emax, midpoint (EC50), and slope of the response curve. The predicted response (yp) for a given dose (x) of peptide was calculated using the following equation: yp=Min+[(Max−Min)/(1+(EC50/x)^slope)]. The initial parameter values were estimated from the primary data, and the Excel “Solver function” was then used to vary the four parameters in order to minimize the differences between the predicted and actual responses (least-squares method) (Bowen, W., & Jerman, J., Trends in Pharmacol. Sci. 16:413-417 (1995)). The statistical significance between two data sets was determined using a one-tailed Student's t-test, assuming unequal variances for the two sets.

Test [3] has as its target PTH-1 receptors. The settings on record: cells expressing (high levels of) PTH-1 receptors; Luck et al. 1999; read-out: EC50 adenyl cyclase/cAMP; cited from earlier work.
Where [4] appears, read: COS-7 cells, WT hPTH-1 receptor.

Values joined by “and” are separate entries in the source; they are usually repeats but may differ in a detail not shown here. Equal entries are not always repeated. Where two headings read alike, the source gives them in different places. No end group written: not given here.

As for `CCCC[C@H](NC(=O)[C@H](CCCNC(=N)N)NC(=O)[C@H](CCC(=O)O)NC(=O)[C@@H](NC(=O)[C@H](CO)NC(=O)[C@H](C)NC(=O)[C@H](CC(C)C)NC(=O)[C@H](Cc1c[nH]cn1)NC(=O)[C@H](CCCCN)NC(=O)CNC(=O)[C@H](CC(C)C)NC(=O)[C@H](CC(N)=O)NC(=O)[C@H](Cc1c[nH]cn1)NC(=O)[C@H](CCCC)NC(=O)[C@H](CC(C)C)NC(=O)[C@H](CCC(N)=O)NC(=O)[C@@H](NC(=O)[C@H](CCC(=O)O)NC(=O)[C@H](CO)NC(=O)[C@@H](NC(=O)[C@H](C)N)C(C)C)[C@@H](C)CC)C(C)C)C(=O)N[C@@H](CCC(N)=O)C(=O)N[C@@H](Cc1c[nH]c2ccccc12)C(=O)N[C@@H](CC(C)C)C(=O)N[C@@H](CCCNC(=N)N)C(=O)N[C@@H](CCCCN)C(=O)N[C@@H](CCCCN)C(=O)N[C@@H](CC(C)C)C(=O)N[C@@H](CCC(N)=O)C(=O)N[C@@H](CC(=O)O)C(=O)N[C@H](C(=O)N[C@@H](Cc1c[nH]cn1)C(=O)N[C@@H](CC(N)=O)C(=O)N[C@@H](Cc1ccc(O)cc1)C(N)=O)C(C)C` [[Nle8, 21, Y34]rPTH(1-34), [Nle^8,21,Tyr^34]-rPTH(1-34)NH2, reference compound], the Emax in test [1] (setting [4]) is listed as 226 ± 31 picomole/well. In test [2], this compound showed an EC50 of 0.000316 µM and an Emax of 364 ± 6 picomole/well.
In the case of “AVAEIQLMHAR-NH2 [compound 6, AlaValAlaGluIleGlnLeuMetHisAlaArg-amide]”, the Emax in test [1] (setting [4]) was found to be 238 ± 20 picomole/well; in test [2] it was 377 ± 23 picomole/well. The EC50 in test [1] (COS-7 cells, WT hPTH-1 receptor, cAMP, read-out: EC50) is 29.1 ± 15.3 µM.
In the case of “AVAEIQLMHARAKH-NH2 [Peptide #1, AlaValAlaGluIleGlnLeuMetHisAlaArgAlaLysHis-amide]”, the Emax in test [1] (setting [4]) is on record as 243 ± 63 picomole/well; in test [2], 395 ± 1 picomole/well. For the same compound, the EC50 in test [1] (COS-7 cells, WT hPTH-1 receptor, cAMP, read-out: EC50 Log M (converted)) was 1 µM.
“AVAEIQLMHARAKHLNSMERVEWLRKKLQDVHNY-NH2 [Peptide #7]” had an EC50 in test [1] of 313 ± 121 µM. In addition, the values for the Emax in test [1] (setting [4]) and in test [2] were 222 ± 31 picomole/well and 395 ± 1 picomole/well, respectively.
As to “AVSEIQLMHNLGKH-NH2 [native rPTH(1-14), AVSEIQLMHNLGKH, reference compound]”, the Emax in test [1] (setting [4]) is given as 221 ± 22 picomole/well; in test [2], 376 ± 23 picomole/well. In addition, the EC50 in test [3] is ~100 µM and 100 µM.
